Data as given in the supplement of paper PMC10307832.

Key:
Test in all cases: relative viability (nuclei count vs DMSO), 5 days (fraction); higher = more cells survive
[1] = compound: C=CCc1cccc(/C=N/NC(=O)CN2CCN(Cc3ccccc3)CC2)c1O [PAC-1] + CC(=O)Nc1cccc(-n2c(=O)n(C3CC3)c(=O)c3c(Nc4ccc(I)cc4F)n(C)c(=O)c(C)c32)c1 [Trametinib] (partner 0.02 µM)
How it was run: (§1)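 After 5 days of treatment, lung cancer cells in 1536-well plates were fixed and stained in a single step (final 0.05% Triton X-100, 1% formaldehyde, 1 ug/ml Hoechst) and their nuclei counted on 4× images. Treatment had been applied by pin tool the day after seeding as one drug alone or as a fixed anchor-drug dose with five library-drug doses (not always all listed) in √10 steps. Relative viability is the nuclei count of treated wells divided by that of vehicle wells, and values are medians of duplicate plates.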

[2] = compound: C=CCc1cccc(/C=N/NC(=O)CN2CCN(Cc3ccccc3)CC2)c1O [PAC-1] + C[C@]1(O)C[C@@H](c2nc(-c3ccc4ccc(-c5ccccc5)nc4c3)c3c(N)nccn32)C1 [Linsitinib] (partner 1 µM)
How it was run: as §1

[3] = compound: C=CCc1cccc(/C=N/NC(=O)CN2CCN(Cc3ccccc3)CC2)c1O [PAC-1] + CC1(C)CCC(c2ccc(Cl)cc2)=C(CN2CCN(c3ccc(C(=O)NS(=O)(=O)c4ccc(N[C@H](CCN5CCOCC5)CSc5ccccc5)c(S(=O)(=O)C(F)(F)F)c4)cc3)CC2)C1 [Navitoclax] (partner 0.5 µM)
How it was run: as §1

[4] = compound: C=CC(=O)Nc1cc(-n2c(=O)ccc3cnc4ccc(-c5ccc(NS(C)(=O)=O)cc5)cc4c32)ccc1C [BMX-IN-1] + Cc1nc(Nc2ncc(C(=O)Nc3c(C)cccc3Cl)s2)cc(N2CCN(CCO)CC2)n1 [Dasatinib] (partner 0.075 µM)
How it was run: as §1

Cell Line | relative viability ([1]; first compound 0.02 µM) | relative viability ([1]; first compound 0.06325 µM) | relative viability ([1]; first compound 0.2 µM) | relative viability ([1]; first compound 2 µM) | relative viability ([2]; first compound 0.02 µM) | relative viability ([2]; first compound 0.06325 µM) | relative viability ([2]; first compound 0.2 µM) | relative viability ([2]; first compound 2 µM) | relative viability ([3]; first compound 0.02 µM) | relative viability ([3]; first compound 0.06325 µM) | relative viability ([3]; first compound 0.2 µM) | relative viability ([3]; first compound 2 µM) | relative viability ([4]; first compound 0.02 µM) | relative viability ([4]; first compound 0.2 µM) | relative viability ([4]; first compound 0.6325 µM) | relative viability ([4]; first compound 2 µM)
NCI-H647 | 0.456 | 0.535 | 0.446 | 0.399 | 1.05 | 1.19 | 1.2 | 0.807 | 1.23 | 1.09 | 1.16 | 1.2 | 0.197 | 0.24 | 0.277 | 0.174
NCI-H727 | 0.348 | 0.394 | 0.414 | 0.414 | 0.281 | 0.283 | 0.272 | 0.317 | 0.425 | 0.452 | 0.352 | 0.42 | 0.438 | 0.339 | 0.479 | 0.444
NCI-H838 | 0.46 | 0.509 | 0.459 | 0.528 | 1.02 | 0.982 | 0.925 | 1.15 | 1.08 | 1.12 | 1.08 | 1.21 | 0.28 | 0.323 | 0.347 | 0.282
NCI-H1355 | 0.464 | 0.467 | 0.416 | 0.419 | 0.74 | 0.89 | 0.806 | 0.803 | 0.866 | 0.961 | 0.965 | 0.962 | 0.772 | 0.777 | 0.768 | 0.785
NCI-H1395 | 1.1 | 1 | 0.976 | 0.974 | 1.02 | 1.15 | 0.842 | 0.958 | 1.21 | 1.16 | 1.32 | 1.32 | 0.408 | 0.579 | 0.462 | 0.391
NCI-H1437 | 0.555 | 0.511 | 0.494 | 0.525 | 0.986 | 1.02 | 0.911 | 0.71 | 1.04 | 1.12 | 1.01 | 0.775 | 0.512 | 0.391 | 0.429 | 0.409
NCI-H1651 | 0.85 | 0.862 | 0.765 | 0.855 | 0.823 | 0.933 | 0.992 | 1.12 | 0.924 | 1.12 | 1.06 | 1.09 | 0.213 | 0.515 | 0.435 | 0.406
NCI-H1666 | 0.909 | 0.868 | 0.862 | 0.914 | 0.986 | 0.789 | 0.983 | 0.891 | 1.14 | 0.915 | 0.933 | 1.04 | 0.905 | 0.839 | 0.94 | 0.845
NCI-H1734 | 0.692 | 0.774 | 0.644 | 0.644 | 0.845 | 0.885 | 0.928 | 1.02 | 0.826 | 0.832 | 0.813 | 0.881 | 0.463 | 0.504 | 0.476 | 0.467
